Data from patent publication US11833187B2, “Materials and methods for extracellular vessicle-associated diseases” (THE BRIGHAM AND WOMEN'S HOSPITAL, INC., priority 2017, dated 2023).
Entries after “also recorded” stand apart in the source; their conditions may differ. Each block holds one compound with its values, some of them ahead of it. Peptide text beside a SMILES is read from it. * marks the point of attachment. Cbz = O=C(OCc1ccccc1)*

Columns and labels:
FLAG-sortilin [1] = biological target: T1, FLAG-sortilin (Homo sapiens, UniProt Q99523); experiment: Non-reducing western blotting of sortilin dimerization in extracellular vesicles of FLAG-sortilin HEK293 cells; type: cell-based; conditions: for dimerization of sortilin in the extracellular vesicles: EVs of FLAG-sortilin HEK293 cells, propeptide 100 nmol/L, 24 hours, n=2; for sortilin homodimers (dimerization) in the extracellular vesicles: EVs of HEK293 cells stably overexpressing FLAG-sortilin, 24-h incubation, n=3
T1 construct: pcDNA3.1(+) FLAG-sortilin full-length (Full), amino acids (aa) 1-831; expressed in transfected cells; cells and their extracellular vesicles
T1 sequence (Q99523 78-831): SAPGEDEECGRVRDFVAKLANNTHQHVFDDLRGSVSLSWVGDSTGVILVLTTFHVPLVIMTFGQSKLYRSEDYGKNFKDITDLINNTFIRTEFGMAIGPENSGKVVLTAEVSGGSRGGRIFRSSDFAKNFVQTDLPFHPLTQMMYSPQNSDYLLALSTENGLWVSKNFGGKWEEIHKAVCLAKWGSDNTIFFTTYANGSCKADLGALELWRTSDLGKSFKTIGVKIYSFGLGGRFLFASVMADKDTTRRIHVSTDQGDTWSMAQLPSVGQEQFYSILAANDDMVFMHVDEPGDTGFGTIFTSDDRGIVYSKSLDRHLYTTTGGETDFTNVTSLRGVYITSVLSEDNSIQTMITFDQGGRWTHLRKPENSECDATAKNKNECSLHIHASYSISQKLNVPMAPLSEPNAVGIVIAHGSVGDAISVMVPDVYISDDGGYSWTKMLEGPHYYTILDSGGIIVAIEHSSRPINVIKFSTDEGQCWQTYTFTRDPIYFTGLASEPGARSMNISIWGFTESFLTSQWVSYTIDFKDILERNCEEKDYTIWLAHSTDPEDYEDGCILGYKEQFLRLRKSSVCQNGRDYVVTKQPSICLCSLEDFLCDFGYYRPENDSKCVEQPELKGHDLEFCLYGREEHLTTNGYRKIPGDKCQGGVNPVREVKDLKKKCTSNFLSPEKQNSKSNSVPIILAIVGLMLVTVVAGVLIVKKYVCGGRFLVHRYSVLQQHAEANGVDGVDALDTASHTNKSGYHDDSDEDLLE
Description: (§1) Cells, EVs and the supernatant of culture medium were lysed with IP lysis buffer (Thermo Fisher Scientific Inc., Cat #87787) containing protease inhibitor (Roche Diagnostics, Cat #04693159001). Protein concentration was measured using the bicinchoninic acid (BCA) method (Thermo Fisher Scientific Inc., Cat #23225). Laemmli buffer (Boston Bioproduct; non-reducing, Cat #BP-110NR; reducing, Cat #BP-111R) was added to the lysate, and boiled at 95° C. for 5 minutes. Total protein was separated by 4-12% SDS-PAGE and transferred to polyvinylidene difluoride (PVDF) membrane using iBlot Western blotting system (Life Technologies) or conventional wet method. Primary antibodies against human sortilin ICD (rabbit 1:1000; Abcam plc., Cat #ab16640, Lot #GR185198-1), human (3-actin (mouse 1:2000; Novus Biologicals, LLC, Cat #NB600-501, Lot #014M4759), FLAG (rabbit 1:1000; Sigma, Cat #F4725, Lot #093M4798, mouse (M2) 1:1000; Sigma, Cat #F1804, Lot #SLBJ4607V), 6×His (mouse 1:1000; Abcam plc., Cat #ab18184, Lot #GR247674-1).
(§2) HEK293 cells were purchased from American Type Culture Collection (ATCC) and maintained in Eagle's minimum essential medium (EMEM, ATCC, Cat #30-2003) supplemented with 10% fetal bovine serum (FBS), penicillin (100 U/mL), and streptomycin (100 μg/mL) at 37° C. in a humidified atmosphere of 5% CO2. For transfection in HEK293 cells, Lipofectamine 2000 reagent (Thermo Fisher Scientific Inc., Cat #11668019) was used, according to the manufacturer's protocol. HEK293 cells stably expressing FLAG-sortilin Full, ECD+TMD, ICD+TMD and sortilin-3×FLAG were obtained by transfection with pcDNA3.1(+) FLAG-sortilin Full, pcDNA3.1(+) FLAG-sortilin-ECD+TMD, pcDNA3.1(+) FLAG-sortilin ICD+TMD, and expression vector of sortilin-3×FLAG (GeneCopoeia, Inc., Cat # EX-M0397-M14), respectively. These cell lines were maintained in EMEM supplemented with 10% FBS, penicillin/streptomycin, and geneticin 800 μg/mL. Cells were incubated in the incubator with MG-132 and chloroquine during the indicated time, and with 2-FPA and sortilin propeptide for 24 hours, respectively.
Separation of culture medium to supernatant and EVs was performed according to the protocol previously reported (41). Culture medium underwent centrifugation at 1,000 rpm for 5 minutes to remove cell debris. Then, the supernatant and EVs were separated by ultracentrifugation at 100,000 g for 40 minutes at 4° C. (Optima Max Ultracentrifuge, Beckman Coulter).

FLAG-sortilin [2] = biological target: T1, FLAG-sortilin; experiment: Non-reducing western blotting of sortilin dimerization in FLAG-sortilin HEK293 cells; type: cell-based; conditions: for dimerization of sortilin in the cells: FLAG-sortilin HEK293 cells, propeptide 100 nmol/L, 24 hours, n=2; for sortilin homodimers of low molecular weight in the cells: HEK293 cells stably overexpressing FLAG-sortilin, 24-h incubation, n=3
Description: as §1, §2

FLAG-sortilin ICD+TMD = experiment: Reducing western blotting of FLAG-sortilin ICD+TMD protein expression in stably overexpressing HEK293 cells; type: cell-based, human; conditions: for protein expression of FLAG-sortilin ICD+TMD: MG-132 20 μmol/L or chloroquine 10 μmol/L for 7 hours, n=3
Description: as §1, §2

[3] = listed as palmitoylation inhibitor

dimerization of sortilin in the cells (FLAG-sortilin [2]): did not affect dimerization in the cells
dimerization of sortilin in the cells (FLAG-sortilin [2]; listed as propeptide): a decrease in the cells was not observed
Compound: sortilin-derived propeptide: Sortilin propeptide (SEQ ID NO: 2), purchased from Phoenix Pharmaceuticals; the claimed inhibitor of sortilin dimerization (QDRLDAPPPPAAPLPRWSGPIGVSWGLRAAAAGGAFPRGGRWRR; listed as Homo sapiens)
dimerization of sortilin in the extracellular vesicles (FLAG-sortilin [1]): decreased sortilin homodimers within EVs; also recorded: decreases sortilin homodimers in EVs; also recorded: decreased dimerization in the extracellular vesicles
dimerization of sortilin in the extracellular vesicles (FLAG-sortilin [1]; listed as propeptide): decreased dimerization of sortilin in the extracellular vesicles
sortilin dimerization (formation of homodimers), compartment not given (FLAG-sortilin [2]; HEK293 cell line, propeptide treatment, summary statement): reduced them; also recorded: sortilin dimerization was decreased

Compound: Chloroquine diphosphate salt
protein expression of FLAG-sortilin ICD+TMD (FLAG-sortilin ICD+TMD): did not

sortilin homodimers of low molecular weight in the cells (FLAG-sortilin [2]; [3]): increased sortilin dimerization
Compound: CCCCCCCCCCCCCCC(F)C(=O)O (stereo not drawn) [2-FPA, 2-fluoropalmitic acid]
sortilin homodimers (dimerization) in the extracellular vesicles (FLAG-sortilin [1]): increased dimerization of FLAG-sortilin in the EVs; also recorded: increased sortilin homodimers of low molecular weight
sortilin homodimers (dimerization) in the extracellular vesicles (FLAG-sortilin [1]; [3]): increased transport of dimerized sortilin to EVs
sortilin homodimers of low molecular weight in the cells (FLAG-sortilin [2]): increased only homodimers of lower molecular size in the cells; also recorded: increased sortilin homodimers of low molecular weight

Compound: CC(C)C[C@@H](C=O)NC(=O)[C@H](CC(C)C)NC(=O)[C@H](CC(C)C)NC(=O)OCc1ccccc1 [MG-132] (Cbz-Leu-Leu-Leu-aldehyde)
protein expression of FLAG-sortilin ICD+TMD (FLAG-sortilin ICD+TMD): increased the protein expression of FLAG-sortilin ICD+TMD
protein expression of FLAG-sortilin ICD+TMD, time and concentration dependence (FLAG-sortilin ICD+TMD; MG-132 2-20 μmol/L for 7 or 24 hours): increased protein expression of FLAG-sortilin ICD+TMD in a time- and concentration-dependent manner
